According to patent US8802865B2 (Janssen Pharmaceutica, NV, priority 2006, dated 2014):

Experiments:
ventral prostate = test: Ventral Prostate Weight in vivo Assay (inhibition of testosterone-enhanced tissue weight); parameters: key: “active” in the Table below if the non weight adjusted prostate weight was ≦40 mg or the % Inhibition prostate weight, body weight adjusted was ≧40% @ 2 mg/day dosage; listed herein as “inactive” as they did not meet the specified criteria defined above; conditions: castrated male Sprague Dawley rats, test compound usually orally once daily with testosterone propionate s.c.; ventral prostate wet weight; criteria at 2 mg/day dosage
Procedure: (§1) Ventral Prostate and Levator Ani Weight in vivo Assay
(§2) Immature (approximately 50 g) castrated male Sprague Dawley rats (Charles River) were treated once daily for five days with test compound (usually given orally at 40 mg/kg in a volume of 0.3 mL, in 30% cyclodextrin or 0.5% methylcellulose vehicle) and with testosterone propionate (given subcutaneously by injection at the nape of the neck at 2 mg/kg, in a volume of 0.1 mL in sesame oil). On the sixth day, the rats were euthanized by asphyxiation in carbon dioxide. Ventral prostates and levator ani were removed and their wet weights determined. Test compound activity was determined as the percent inhibition of testosterone-enhanced tissue weights, with a vehicle-treated control group set to zero percent and a testosterone alone-treated control group set to 100%.
(§3) Mature (150- to 200-g) castrated male Sprague Dawley rats (Charles River) are similarly tested according to the procedure described above. The rats were dosed for two weeks, with 0.4 mg/kg testosterone propionate used as the positive control.
(§4) Representative compounds of the present invention were tested according to the procedure described above, with results as listed in Table 3 below. For effect on prostate—i.e. an antagonist—a test compound is listed as “active” in the Table below if the non weight adjusted prostate weight was ≦40 mg or the % Inhibition prostate weight, body weight adjusted was ≧40% @ 2 mg/day dosage. For effect on levator ani—i.e. an agonist—a test compound is listed as “active” in the Table below if the non weight adjusted levator ani weight was ≧40 mg or the % Stimulation levator ani weight, body weight adjusted was ≧40% at 2 mg/day dosage.

levator ani = test: Levator Ani Weight in vivo Assay (stimulation of levator ani weight); parameters: key: “active” in the Table below if the non weight adjusted prostate weight was ≦40 mg or the % Inhibition prostate weight, body weight adjusted was ≧40% @ 2 mg/day dosage; listed herein as “inactive” as they did not meet the specified criteria defined above; conditions: castrated male Sprague Dawley rats, test compound usually orally once daily with testosterone propionate s.c.; levator ani wet weight; criteria at 2 mg/day dosage
Procedure: as §1, §2, §3, §4

Compound	Prostate antagonist (ventral prostate)	L.A. agonist (levator ani)
C=CCC(O)(c1nc2cc(Cl)c(Cl)cc2[nH]1)C(F)(F)F (single isomer, unassigned; (+)) [Compound 23, (+)-Enantiomer of 2-(5,6-Dichloro-1H-benzoimidazol-2-yl)-1,1,1-trifluoro-pent-4-en-2-ol]	active	inactive
C#CCC(O)(c1nc2cc(Cl)c(Cl)cc2n1C)C(F)(F)F (single isomer, unassigned; (+)) [Compound 36, (+)-Enantiomer of 2-(5,6-Dichloro-1-methyl-1H-benzoimidazol-2-yl)-1,1,1-trifluoro-pent-4-yn-2-ol]	inactive	inactive
C=CCC(O)(c1nc2cc(Cl)c(Cl)cc2[nH]1)C(F)(F)F (single isomer, unassigned; (-)) [Compound 24, (−)-Enantiomer of 2-(5,6-Dichloro-1H-benzoimidazol-2-yl)-1,1,1-trifluoro-pent-4-en-2-ol]	active	inactive
C=C=CC(O)(c1nc2cc(Cl)c(Cl)cc2[nH]1)C(F)(F)F (single isomer, unassigned; (-)) [Compound 32, (−)-Enantiomer of 2-(5,6-Dichloro-1H-benzoimidazol-2-yl)-1,1,1-trifluoro-penta-3,4-dien-2-ol]	active	inactive
C=CC(O)(c1nc2cc(Cl)c(Cl)cc2[nH]1)C(F)(F)F (single isomer, unassigned; (-)) [Compound 44, (−)-2-(5,6-dichloro-1H-benzoimidazol-2-yl)-1,1,1-trifluoro-but-3-en-2-ol]	inactive	inactive
C=C=C(C)C(O)(c1nc2cc(Cl)c(Cl)cc2[nH]1)C(F)(F)F (centres unmarked) [Compound 6, 2-(5,6-Dichloro-1H-benzoimidazol-2-yl)-1,1,1-trifluoro-3-methyl-pent-3,4-dien-2-ol]	active	inactive
CC#CC(O)(c1nc2cc(Cl)c(Cl)cc2[nH]1)C(F)(F)F (centres unmarked) [Compound 8, 2-(5,6-Dichloro-1H-benzoimidazol-2-yl)-1,1,1-trifluoro-pent-3-yn-2-ol]	active	inactive
C=C(C)C(O)(c1nc2cc(Cl)c(Cl)cc2[nH]1)C(F)(F)F (centres unmarked) [Compound 9, 2-(5,6-Dichloro-1H-benzoimidazol-2-yl)-1,1,1-trifluoro-3-methyl-but-3-en-2-ol]	active	inactive
OC(c1ccccc1)(c1nc2cc(Cl)c(Cl)cc2[nH]1)C(F)(F)F (centres unmarked) [Compound 10, 1-(5,6-Dichloro-1H-benzoimidazol-2-yl)-2,2,2-trifluoro-1-phenyl-ethanol]	active	inactive
C=C(C)CC(O)(c1nc2cc(Cl)c(Cl)cc2[nH]1)C(F)(F)F (centres unmarked) [Compound 13, 2-(5,6-Dichloro-1H-benzoimidazol-2-yl)-1,1,1-trifluoro-4-methyl-pent-4-en-2-ol]	active	inactive
CC(C)=CC(O)(c1nc2cc(Cl)c(Cl)cc2[nH]1)C(F)(F)F (centres unmarked) [Compound 14, 2-(5,6-Dichloro-1H-benzoimidazol-2-yl)-1,1,1-trifluoro-4-methyl-pent-3-en-2-ol]	active	inactive
C/C=C/C(O)(c1nc2cc(Cl)c(Cl)cc2[nH]1)C(F)(F)F (stereo not drawn) [Compound 16, 2-(5,6-Dichloro-1H-benzoimidazol-2-yl)-1,1,1-trifluoro-trans-pent-3-en-2-ol]	active	inactive
OCC#CC(O)(c1nc2cc(Cl)c(Cl)cc2[nH]1)C(F)(F)F (centres unmarked) [Compound 17, 4-(5,6-Dichloro-1H-benzoimidazol-2-yl)-5,5,5-trifluoro-pent-2-yne-1,4-diol]	active	inactive
C=CC(C)(C)C(O)(c1nc2cc(Cl)c(Cl)cc2[nH]1)C(F)(F)F (centres unmarked) [Compound 25, 2-(5,6-Dichloro-1H-benzoimidazol-2-yl)-1,1,1-trifluoro-3,3-dimethyl-pent-4-en-2-ol]	active	inactive
C=CC(C)C(O)(c1nc2cc(Cl)c(Cl)cc2[nH]1)C(F)(F)F (centres unmarked) [Compound 26]	active	inactive
C=C(CC(O)(c1nc2cc(Cl)c(Cl)cc2[nH]1)C(F)(F)F)C(=O)O (centres unmarked) [Compound 27, 2-[2-(5,6-Dichloro-1H-benzoimidazol-2-yl)-3,3,3-trifluoro-2-hydroxy-propyl]-acrylic acid]	inactive	inactive

Compound	Prostate antagonist (ventral prostate)	L.A. agonist (levator ani)
C=CC(c1ccccc1)C(O)(c1nc2cc(Cl)c(Cl)cc2[nH]1)C(F)(F)F (centres unmarked) [Compound 28, 2-(5,6-Dichloro-1H-benzoimidazol-2-yl)-1,1,1-trifluoro-3-phenyl-pent-4-en-2-ol]	active	inactive
OC(CC#Cc1ccccc1)(c1nc2cc(Cl)c(Cl)cc2[nH]1)C(F)(F)F (centres unmarked) [Compound 34, 2-(5,6-Dichloro-1H-benzoimidazol-2-yl)-1,1,1-trifluoro-5-phenyl-pent-4-yn-2-ol]	inactive	inactive
C#CCC(O)(c1nc2cc(Cl)c(Cl)cc2n1C)C(F)(F)F (centres unmarked) [Compound 35, 2-(5,6-Dichloro-1-methyl-1H-benzoimidazol-2-yl)-1,1,1-trifluoro-pent-4-yn-2-ol]	inactive	–
C#CCC(O)(c1nc2cc(C#N)c(C(F)(F)F)cc2[nH]1)C(F)(F)F (centres unmarked) [Compound 39, 2-(1-Hydroxy-1-trifluoromethyl-but-3-ynyl)-6-trifluoromethyl-1H-benzoimidazole-5-carbonitrile]	active	inactive
C=CCCC(O)(c1nc2cc(Cl)c(Cl)cc2[nH]1)C(F)(F)F (centres unmarked) [Compound 40, 2-(5,6-Dichloro-1H-benzoimidazol-2-yl)-1,1,1-trifluoro-hex-5-en-2-ol]	active	–
FC(F)(F)C1(c2nc3cc(Cl)c(Cl)cc3[nH]2)OCCO1 [Compound 47, 5,6-Dichloro-2-(2-trifluoromethyl-[1,3]dioxolan-2-yl)-1H-benzimidazole]	active	–
FC(F)(F)C1(c2nc3cc(Cl)c(Cl)cc3[nH]2)OCC(CCl)O1 (centres unmarked) [Compound 50, 5,6-Dichloro-2-(4-chloromethyl-2-trifluoromethyl-[1,3]dioxolan-2-yl)-1H-benzimidazole]	active	–
Cn1c(C2(C(F)(F)F)OCCO2)nc2cc(Cl)c(Cl)cc21 [Compound 52, 5,6-Dichloro-1-methyl-2-(2-trifluoromethyl-[1,3]dioxolan-2-yl)-1H-benzoimidazole]	inactive	–
N#CCn1c(C2(C(F)(F)F)OCCO2)nc2cc(Cl)c(Cl)cc21 [Compound 53, [5,6-Dichloro-2-(2-trifluoromethyl-[1,3]dioxolan-2-yl)-benzoimidazol-1-yl]-acetonitrile]	active	–
C#CCn1c(C2(C(F)(F)F)OCCO2)nc2cc(Cl)c(Cl)cc21 [Compound 54, 5,6-Dichloro-1-prop-2-ynyl-2-(2-trifluoromethyl-[1,3]dioxolan-2-yl)-1H-benzoimidazole]	active	–
C=CCn1c(C2(C(F)(F)F)OCCO2)nc2cc(Cl)c(Cl)cc21 [Compound 55, 1-Allyl-5,6-dichloro-2-(2-trifluoromethyl-[1,3]dioxolan-2-yl)-1H-benzoimidazole]	active	–
CCn1c(C2(C(F)(F)F)OCCO2)nc2cc(Cl)c(Cl)cc21 [Compound 56, 5,6-Dichloro-1-ethyl-2-(2-trifluoromethyl-[1,3]dioxolan-2-yl)-1H-benzoimidazole]	active	–
COC(=O)Cn1c(C2(C(F)(F)F)OCCO2)nc2cc(Cl)c(Cl)cc21 [Compound 57, [5,6-Dichloro-2-(2-trifluoromethyl-[1,3]dioxolan-2-yl)-benzoimidazol-1-yl]-acetic acid methyl ester]	inactive	–
FC(F)(F)C1(c2nc3cc(Cl)c(Cl)cc3[nH]2)NCCN1 [Compound 60, 5,6-Dichloro-2-(2-trifluoromethyl-imidazolidin-2-yl)-1H-benzimidazole]	active	–
C=C=C(CC)C(O)(c1nc2cc(Cl)c(Cl)cc2[nH]1)C(F)(F)F (centres unmarked) [Compound 62, 2-(5,6-Dichloro-1H-benzoimidazol-2-yl)-3-ethyl-1,1,1-trifluoro-penta-3,4-dien-2-ol]	active	–
